Calls of active or inactive are those of the source. The calls are words filed in the database; no cut-off is given here.
Experiments:
Spodoptera litura [1] = assay: Insecticidal activity against Spodoptera litura assessed as mortality at 500 mg/L after 6 days; assay type: functional; conditions: 144 h
Sf9 [2] = assay: Cytotoxicity against Spodoptera frugiperda (fall armyworm) Sf9 cells at 10 uM after 72 hr by trypan blue dye exclusion test; assay type: functional, cell-based
Sf9 [3] = assay: Cytotoxicity against Spodoptera frugiperda (fall armyworm) Sf9 cells at 5 uM after 72 hr by trypan blue dye exclusion test; assay type: functional, cell-based
Sf9 [4] = assay: Cytotoxicity against Spodoptera frugiperda (fall armyworm) Sf9 cells at 1 to 10 uM after 72 hr by trypan blue dye exclusion test; assay type: functional, cell-based
Sf9 [5] = assay: Induction of cell growth in Spodoptera frugiperda (fall armyworm) Sf9 cells at 10 uM after 72 hr by trypan blue dye exclusion test; assay type: functional, cell-based
Spodoptera litura [6] = assay: Inhibition of mitochondrial respiration in Spodoptera litura mitochondria assessed as oxygen consumption at 20 uM at 3:1 minute after addition of 0.2 mM of rotenone and 0.1 mM of succinate (reference value: 0.5%); assay type: functional; set-up: scale not given: the % may be the effect or the level left
Spodoptera litura [7] = assay: Inhibition of mitochondrial respiration in Spodoptera litura mitochondria assessed as oxygen consumption at 20 uM at 2:1 minute after addition of 0.1 mM of ADP (reference value: 54.4%); assay type: functional; set-up: scale not given: the % may be the effect or the level left
Spodoptera litura [8] = assay: Inhibition of mitochondrial respiration in Spodoptera litura mitochondria assessed as oxygen consumption at 20 uM at 1:1 minute after addition of 0.1 mM of ADP (reference value: 12.2%); assay type: functional; set-up: scale not given: the % may be the effect or the level left
Sf9 [9] = assay: Cytotoxicity against Spodoptera frugiperda (fall armyworm) Sf9 cells assessed as formation of granular structures at 1 to 10 uM after 72 hr by microscopic analysis; assay type: functional, cell-based
Sf9 [10] = assay: Cytotoxicity against Spodoptera frugiperda (fall armyworm) Sf9 cells at 0.01 to 10 uM after 72 hr by trypan blue dye exclusion test; assay type: functional, cell-based
Sf9 [11] = assay: Cytotoxicity against Spodoptera frugiperda (fall armyworm) Sf9 cells at 0.1 to 10 uM after 72 hr by trypan blue dye exclusion test; assay type: functional, cell-based
Sf9 [12] = assay: Cytotoxicity against Spodoptera frugiperda (fall armyworm) Sf9 cells at 0.1 to 1 uM after 72 hr by trypan blue dye exclusion test; assay type: functional, cell-based

Row | SMILES | mortality at 500 µg/mL (Spodoptera litura [1]) [%] | Activity (Sf9 [2]) | further results
1 | ClC(Cl)=C(Cl)COc1cc(Cl)c(OCCCOc2ccc(Cl)cc2)c(Cl)c1 | 0 | inactive | 
2 | C[C@@]1(CO)[C@H](O)CC[C@@]2(C)[C@H]1CC[C@H]1C[C@@H]3C[C@@]12CC[C@]3(O)CO |  |  | Activity (Sf9 [3]): inactive
3 | ClC(Cl)=CCOc1cc(Cl)c(OCCCOc2ccc(Cl)cc2)c(Cl)c1 | 100 | Active | 
4 | CC[C@H]1/C=C/C=C/C[C@@H](C)[C@H](O)[C@@](C)(O)C(=O)[C@@H](C)[C@H](O)[C@@H](C)C(=O)[C@@H](C)[C@H](O)[C@@H](C)/C=C/C(=O)O[C@@H]2[C@H](C)[C@H](CC1)O[C@]1(CC[C@H](C)[C@H](C[C@@H](C)O)O1)[C@H]2C |  |  | Activity (Sf9 [4]): Active
5 | FC(F)(F)c1ccc(OCCCOc2ccc(OCC=C(Cl)Cl)cc2)nc1 | 0 | inactive | 
6 | COP(=O)(NC(C)=O)SC (stereo unspecified) |  |  | Activity (Sf9 [5]): Active
7 | CC1(C)C(C=C(Cl)Cl)C1C(=O)OC(C#N)c1cccc(Oc2ccccc2)c1 (stereo unspecified) |  |  | Activity (Sf9 [5]): Active
8 | O=[N+]([O-])c1ccc(O)c([N+](=O)[O-])c1 |  | Active | 
9 | CNC(=O)ON=C(C)SC |  |  | Activity (Sf9 [5]): Active
10 | FC(F)(F)c1ccc(OCCCOc2c(Cl)cc(OCC=C(Cl)Cl)cc2Cl)nc1 [PYRIDALYL] | 100 |  | Activity (Spodoptera litura [6]): 0.5%; Activity (Spodoptera litura [7]): 53.3%; Activity (Spodoptera litura [8]): 12.2%; Activity (Sf9 [9]): Active; Activity (Sf9 [10]): Active
11 | CC(COc1cc(Cl)c(OCCCOc2ccc(Cl)cc2)c(Cl)c1)=C(Cl)Cl | 0 | inactive | 
12 | CCOCn1c(-c2ccc(Cl)cc2)c(C#N)c(Br)c1C(F)(F)F |  |  | Activity (Sf9 [11]): Active
13 | O=c1[nH]cc(F)c(=O)[nH]1 |  |  | Activity (Sf9 [12]): Active
14 | C=C(C)[C@H]1Cc2c(ccc3c2O[C@@H]2COc4cc(OC)c(OC)cc4[C@@H]2C3=O)O1 |  |  | Activity (Sf9 [4]): Active
15 | FC(F)(F)c1ccc(OCCCOc2c(Cl)cc(OC/C(Cl)=C/Cl)cc2Cl)nc1 | 0 | inactive | 
16 | COc1ccc(C[C@H]2NC[C@H](O)[C@H]2OC(C)=O)cc1 |  | Active | 
